Assay results reported in US11117907B2, “Curcuminoid-inspired synthetic compounds as anti-tumor agents” (University of North Florida Board of Trustees, priority 2017, dated 2021).

SMILES	melting point
O=C(/C=C/c1cc2ccccc2o1)/C=C(O)\C=C\c1cc2ccccc2o1 [compound 9 of Example 5, (1E,4E,6E)-5-Hydroxy-1,7-bis(benzo[b]furan-2-yl)hepta-1,4,6-trien-3-one]	178 to 180 °C
O=C(/C=C/c1ccc(C(F)(F)F)cc1)/C(F)=C(O)/C=C/c1ccc(C(F)(F)F)cc1 [compound 22 of FIG. 2, (1E,4E,6E)-4-Fluoro-1,7-bis(4-trifluoromethyl-phenyl)-5-hydroxy-hepta-1,4,6-trien-3-one]	144 to 146 °C
FC(F)(F)Sc1ccc(C=Cc2cc(C=Cc3ccc(SC(F)(F)F)cc3)on2)cc1 [compound 30 of FIG. 43, 3,5-bis-(4-Trifluoromethylthiostyryl)-isoxazole]	165 to 167 °C
COc1ccc(/C=C/C(=O)/C(F)=C(O)/C=C/c2ccc(OC)c(OC)c2)cc1OC [compound 8 of FIG. 2, (1E,4E,6E)-4-Fluoro-5-hydroxy-1,7-bis(3,4-dimethoxyphenyl)hepta-1,4,6-trien-3-one]	145 to 146 °C
O=C(/C=C/c1ccc(F)c(F)c1F)/C=C(O)\C=C\c1ccc(F)c(F)c1F [compound 21 of FIG. 35, (1E,4E,6E)-5-Hydroxy-1,7-bis(2,3,4-trifluorophenyl)hepta-1,4,6-trien-3-one]	156 to 158 °C
COc1ccc(/C=C/C(=O)/C=C(O)\C=C\c2ccc(OC)c(OCc3ccccc3)c2)cc1OCc1ccccc1 [compound 3 of FIG. 35, (1E,4E,6E)-5-Hydroxy-1,7-bis(3-benzyloxy-4-methoxyphenyl)hepta-1,4,6-trien-3-one]	153 to 155 °C
COc1cc(F)c(/C=C/C(=O)/C=C(O)\C=C\c2cc(OC)c(OC)cc2F)cc1OC [compound 15 of FIG. 2, (1E,4E,6E)-5-Hydroxy-1,7-bis(3,4-dimethoxy-6-fluorophenyl)hepta-1,4,6-trien-3-one]	154 to 156 °C
N#Cc1ccc(-n2nc(C=Cc3ccc(F)cc3)cc2C=Cc2ccc(F)cc2)cc1 [compound 35 of FIG. 43, 3,5-bis-(4-Fluorostyryl)-1-(4-cyanophenyl)pyrazole]	209 to 211 °C
O=C(/C=C/c1ccc(F)cc1)C(F)(F)C(=O)/C=C/c1ccc(F)cc1 [compound 12 of FIG. 2, (1E,6E)-4,4-Difluoro-1,7-bis(4-fluorophenyl)hepta-1,6-diene-3,5-dione]	72 to 73 °C
Fc1ccc(C=Cc2cc(C=Cc3ccc(F)cc3)n(-c3cccc(C(F)(F)F)c3)n2)cc1 [compound 33 of FIG. 43, 3,5-bis-(4-Fluorostyryl)-1-(3-trifluoromethylphenyl)pyrazole]	98 to 100 °C
FC(F)(F)Sc1ccc(C=Cc2cc(C=Cc3ccc(SC(F)(F)F)cc3)n(-c3ccccc3)n2)cc1 [compound 28 of FIG. 43, 3,5-bis-(4-Trifluoromethylthiostyryl)-1-phenylpyrazole]	119 to 121 °C
Fc1ccc(C=Cc2cc(C=Cc3ccc(F)cc3)n(-c3ccc(F)c(F)c3)n2)cc1 [compound 34 of FIG. 43, 3,5-bis-(4-Fluorostyryl)-1-(3,4-difluorophenyl)pyrazole]	169 to 170 °C
COc1cc(F)c(C=Cc2cc(C=Cc3cc(OC)c(OC)cc3F)n(-c3ccc(C#N)cc3)n2)cc1OC [compound 26 of FIG. 43, 3,5-bis-(6-Fluoro-3,4-dimethoxystyryl)-1-(4-cyanophenyl)pyrazole]	91 to 93 °C
COc1cc(F)c(C=Cc2cc(C=Cc3cc(OC)c(OC)cc3F)n(-c3ccc(OC(F)(F)F)cc3)n2)cc1OC [compound 23 of FIG. 43, 3,5-bis-(6-Fluoro-3,4-dimethoxystyryl)-1-(4-trifluoromethoxyphenyl)pyrazole]	80 to 83 °C
COc1cc(F)c(/C=C/C(=O)C(F)(F)C(=O)/C=C/c2cc(OC)c(OC)cc2F)cc1OC [compound 16 of FIG. 2, (1E,6E)-4,4-Difluoro-1,7-bis(3,4-dimethoxy-6-fluorophenyl)hepta-1,6-diene-3,5-dione]	162 to 163 °C
COc1cc(/C=C/C(=O)/C(F)=C(O)/C=C/c2ccc(O)c(OC)c2)ccc1O [compound 4 of FIG. 2, (1E,4E,6E)-4-Fluoro-5-hydroxy-1,7-bis(4-hydroxy-3-methoxyphenyl)hepta-1,4,6-trien-3-one]	154 to 155 °C

Other lines, results leading:

melting point	SMILES
> 260 °C	COc1cc(F)c(/C=C/C(=O)C(F)C(=O)/C=C/c2cc(OC)c(OC)cc2F)cc1OC [compound 18 of FIG. 2, (1E,6E)-4-Fluoro-1,7-bis(3,4-dimethoxy-6-fluorophenyl)hepta-1,6-diene-3,5-dione]
115 to 117 °C	COc1cc(F)c(C=Cc2cc(C=Cc3cc(OC)c(OC)cc3F)n(-c3cc(F)cc(F)c3)n2)cc1OC [compound 25 of FIG. 43, 3,5-bis-(6-Fluoro-3,4-dimethoxystyryl)-1-(3,5-difluorophenyl) pyrazole]
136 to 137 °C	COc1ccc(C=Cc2cc(C=Cc3ccc(OC)c(OC)c3OC)on2)c(OC)c1OC [compound 40 of FIG. 43, 3,5-bis-(2,3,4-Trimethoxystyryl)-isoxazole]
140 to 142 °C	COc1cc(C=Cc2cc(C=Cc3cc(OC)c(OC)c(OC)c3)n(-c3ccc(OC(F)(F)F)cc3)n2)cc(OC)c1OC [compound 42 of FIG. 43, 3,5-bis-(3,4,5-Trimethoxy-styryl)-1-(4-trifluoromethoxyphenyl) pyrazole]
121 to 122 °C	FC(F)(F)Sc1ccc(C=Cc2cc(C=Cc3ccc(SC(F)(F)F)cc3)n(-c3cccc(C(F)(F)F)c3)n2)cc1 [compound 29 of FIG. 43, 3,5-bis-(4-trifluoromethylthiostyryl)-1-(3-trifluoromethylphenyl)pyrazole]
153 to 154 °C	O=C(/C=C/c1ccc(C(F)(F)F)cc1)/C=C(O)\C=C\c1ccc(C(F)(F)F)cc1 [compound 20 of FIG. 2, (1E,4E,6E)-1,7-Bis(4-trifluoromethyl-phenyl)-5-hydroxy-hepta-1,4,6-trien-3-one]
130 to 134 °C	COc1cc(F)c(C=Cc2cc(C=Cc3cc(OC)c(OC)cc3F)n(-c3cccc(C(F)(F)F)c3)n2)cc1OC [compound 24 of FIG. 43, 3,5-bis-(6-Fluoro-3,4-dimethoxystyryl)-1-(3-trifluoromethylphenyl)pyrazole]
152 to 153 °C	O=C(/C=C/c1ccc(F)cc1)/C(F)=C(O)/C=C/c1ccc(F)cc1 [compound 13 of FIG. 2, (1E,4E,6E)-4-Fluoro-1,7-bis(4-fluorophenyl)-5-hydroxy-hepta-1,4,6-trien-3-one]
75 to 76 °C	O=C(/C=C/c1ccc(C(F)(F)F)cc1)C(F)(F)C(=O)/C=C/c1ccc(C(F)(F)F)cc1 [compound 21 of FIG. 2, (1E,6E)-4,4-Difluoro-1,7-bis(4-trifluoromethyl-phenyl)hepta-1,6-diene-3,5-dione]
108 to 111 °C	O=C(/C=C/c1ccc(OC(F)(F)F)cc1)/C=C(O)\C=C\c1ccc(OC(F)(F)F)cc1 [compound 17 of FIG. 35, (1E,4E,6E)-5-Hydroxy-1,7-bis(4-trifluoromethoxyphenyl)hepta-1,4,6-trien-3-one]
68 to 70 °C	O=C(/C=C/c1cccc(OC(F)(F)F)c1)/C=C(O)\C=C\c1cccc(OC(F)(F)F)c1 [compound 15 of FIG. 35, (1E,4E,6E)-5-Hydroxy-1,7-bis(3-trifluoromethoxyphenyl)hepta-1,4,6-trien-3-one]
